Read-outs that look alike come from different tables or passages of the source.
Legend:
patients with HP [1] = settings: cited from earlier work; for urinary calcium excretion: clinical studies; for control of calcium levels: patients with HP
PTX mice = experiment: Serum calcium after single dosing in HP PTX mouse model (Example 1); assay type: in vivo; settings: PTX mice, single dosing; AZP-3601 20, 40 or 80 μg/kg; PTH (1-34) 200 μg/kg
Text: In FIG. 1, the black line indicates the impact of PTX in mice, resulting in serum calcium levels well below normal levels.

[2] = tested on: normal cynomolgus monkeys; experiment: Blood calcium after single injection in normal cynomolgus monkeys (Example 5); assay type: in vivo, cynomolgus monkey; settings: single dose 10 nmole/kg (AZP-3601 42.7 μg/kg, PTH (1-84) 95 μg/kg, PTH (1-34) 42 μg/kg), AZP-3601 also 10.7 μg/kg (2.5 nmole/kg)
Experimental: To further examine how the potent and sustained biological activity induced by AZP-3601 could translate into potential clinical benefit for […] patients, its activity was examined in normal cynomolgus monkeys, a species much closer to humans and the most relevant for first in human dose-selection. Single injections of AZP-3601 were administered to normal cynomolgus monkeys. […] The dissociation between pharmacokinetic profile and pharmacodynamic effect is due to the short circulating half-life of AZP-3601 as opposed to the prolonged signaling caused by AZP-3601's potent interaction with the R^0 conformation of the PTH1 receptor.
In a second study as illustrated in panel B of FIG. 5, monkeys were injected with a single dose of either natural PTH (1-84) at 95 μg/kg, natural PTH (1-34) at 42 μg/kg or AZP-3601 at 42.7 μg/kg, which were equal doses of 10 nmole/kg, adjusted for the molecular weight of the individual compounds. In addition, a lower dose of 10.7 μg AZP-3601/kg (2.5 nmole/kg) was also tested.

hypoparathyroid mice = settings: single sc, AZP-3601 10 to 20 nmol/kg, PTH(1-34) at a higher dose; cited from earlier work
TPTX rats [3] = experiment: Distal femur BMD by qCT in TPTX rats after 14-day treatment at doses that normalize serum calcium (Example 6); assay type: in vivo, rat
Experimental: To directly compare the effect of daily subcutaneous injection of AZP-3601 to daily subcutaneous injection and continuous infusion of PTH(1-34), dose levels for each regimen that normalized serum calcium levels in TPTX rats were utilized. These doses corresponded to 50 nmoles/kg/day (205 μg/kg/day) for PTH(1-34) injected daily, 3 nmoles/kg/day (12.3 μg/kg/day) for PTH(1-34) continuously infused, and 1 nmole/kg/day (4.2 μg/kg/day) for AZP-3601 injected daily. After 14 days of treatment, femurs were collected and examined for bone mineral density (BMD) by quantitative computed tomography.

TPTX rats [4] = settings: rat, in vivo; cited from earlier work
patients with HP [5] = settings: cited from earlier work
TPTX rats [6] = experiment: Serum calcium and phosphate, 28-day daily sc dosing in HP TPTX rat model (Example 2); assay type: in vivo; settings: once daily sc for 28 days
Experimental: Thyroid-parathyroidectomized, or TPTX, rats were treated with daily subcutaneous injection of AZP-3601 at doses ranging from 3.8 μg/kg/day to 30.7 μg/kg/day. Treatment was continued for 28 days. […] The increase in calcium accumulated over time (over the first 15 to 21 days), but became more constant thereafter, indicating the development of a steady-state effect (FIG. 2). Due to the cumulative effect, lower doses of AZP-3601 were required to eventually increase blood calcium levels into the normal range as compared to the dose required with a single injection.

TPTX rats [7] = experiment: BMD (DXA) and bone structure (micro-CT) in TPTX rats after repeated daily dosing (Example 7); assay type: in vivo, rat; settings: once daily sc, AZP-3601 3.8 to 30.7 μg/kg/day, versus vehicle
Experimental: To examine the effect of repeated dosing with AZP-3601, TPTX rats were treated with daily subcutaneous injections of either vehicle or AZP-3601 with doses ranging from 3.8 to 30.7 μg/kg/day (0.9-7.2 nmole/kg/day). As additional controls, a separate group of TPTX rats received daily injections of natural PTH (1-84), and a group of normal (with intact thyroid and parathyroid glands, or sham) rats were injected with vehicle. […] Both whole femurs and lumbar spine were analyzed using a technique called dual-energy x-ray absorptionametry, or DXA, which measures BMD.

Natpara™: recombinant natural human PTH ((rh)PTH(1-84)), approved adjunct to calcium and vitamin D in HP
urinary calcium excretion (patients with HP [1]): failed to demonstrate reduction of urinary calcium excretion
urinary calcium excretion (patients with HP [1]; listed as (rh)PTH(1-84)): elevated urinary calcium excretion in many subjects
adverse effects (patients with HP [1]; human, in vivo): adverse effects such as hyper/hypocalcemia and vasoactive events
half-life (patients with HP [1]; human, in vivo): short half-life
control of calcium levels (patients with HP [1]): does not control calcium levels for the entire day
control of calcium levels (patients with HP [1]; listed as (rh)PTH(1-84)): lack of 24-hour control of serum calcium

PTH(1-34) (SVSEIQLMHNLGKHLNSMERVEWLRKKLQDVHNF) [natural PTH (1-34)]
effect on serum calcium (PTX mice): transient elevation in serum calcium
effect on blood calcium, second study [2]: only modestly increased blood calcium
duration of decreased serum inorganic phosphorus (hypoparathyroid mice): < 4 h
duration of increased serum calcium (hypoparathyroid mice): < 8 h
femur BMD by quantitative computed tomography, continuous infusion (TPTX rats [3]; 14 days, 3 nmoles/kg/day continuously infused): significant decrease in BMD
femur BMD by quantitative computed tomography, daily injection (TPTX rats [3]; 14 days, PTH(1-34) 50 nmoles/kg/day, AZP-3601 1 nmole/kg/day): significant increase in BMD
dose that normalized serum calcium levels, continuous infusion (TPTX rats [3]; continuously infused): 3 nmol/kg/day
dose that normalized serum calcium levels, daily subcutaneous injection (TPTX rats [3]; injected daily): 50 nmol/kg/day

TransCon™PTH: sustained-release, injectable prodrug formulation of native PTH (1-34), Ascendis Pharma A/S
pharmacokinetic profile (TPTX rats [4]): continuous, non-pulsatile, infusion-like pharmacokinetic profile
hypercalciuria after treatment (patients with HP [5]; Phase 3 trial, 6 months of treatment): a number of patients are still hypercalciuric
mean T-scores (patients with HP [5]; human, in vivo): decrease in mean T-scores
serum calcium levels (patients with HP [5]; human, in vivo): provides stable serum calcium levels
mean 24-hour urine calcium levels (patients with HP [5]; patients with HP): decrease mean 24-hour urine calcium levels

B1: PTH (1-84) (protein, UniProt P01270 32-115, looked up)
Parathyroid hormone: SVSEIQLMHNLGKHLNSMERVEWLRKKLQDVHNFVALGAPLAPRDAGSQRPRKKEDNVLVESHEKSLGEADKADVNVLTKAKSQ
modifications: Parathyroid hormone
notes: natural PTH (1-84), comparator in rats and monkeys
effect on blood phosphate levels (TPTX rats [6]): only marginal reductions in blood phosphate levels
effect on serum/blood calcium levels (TPTX rats [6]; AZP-3601 3.8 to 30.7 μg/kg/day): no persistent increase in blood calcium levels
BMD of whole femur and lumbar spine by DXA (TPTX rats [7]): statistically significant increase in BMD
effect on blood calcium, second study [2]: only modestly increased blood calcium

From patent US20250032590A1, “PARATHYROID HORMONE COMPOUNDS IN THE TREATMENT OF HYPOPARATHYROIDISM” (AMOLYT PHARMA, priority 2023, published 2025)
